Common to all, as to assay type: cell-based
One test concerns HCT 116. Description: Cell proliferation assay. The note with it: Homo sapiens, Table 7b, HCT-116, read-out: Cell Proliferation Assay (EC50). On the procedure:
(§1) Measurement of the inhibitive effect of compounds on cancer cell proliferation was performed. The assays were performed under the following conditions: Cells are harvested at a concentration of 4×10^4 cells/ml in media. Volumes of 100 μL/well of these cell suspensions were added to a 96 well plate using a multichannel pipette. Plates were gently agitated to ensure an even dispersion of cells over a given plate. Cells were then incubated at 37° C., 5% CO2 overnight. Following this, 100 μL of compound at varying concentrations was added to wells in triplicate. Control wells are those with 100 μL media containing 0.33% DMSO added to cell suspension (this is the equivalent volume of DMSO found in the highest concentration of drug). Plates were then gently agitated, as above, and incubated at 37° C., 5% CO2 for 72 hrs (control wells have reached 80-90% confluency). Assessment of cell proliferation in the presence of Compounds C and F was determined by the acid phosphatase assay.
(§2) Following the incubation period of 72 hrs, media was removed from the plates. Each well on the plate was washed twice with 100 μL PBS. This was then removed and 100 μL of freshly prepared phosphatase substrate (10 mM p-nitrophenol phosphate in 0.1M sodium acetate, 0.1% triton X-100, pH 5.5) was added to each well. The plates were then incubated in the dark at 37° C. for 2 hours. Color development was monitored during this time. The enzymatic reaction was stopped by the addition of 50 μL of 1N NaOH. The plate was read in a dual beam plate reader at 405 nm with a reference wavelength of 620 nm. The absorbance reading of the latter is subtracted from the former, and the effect of the drug on cell proliferation was then measured as a percentage against the control cells (DMSO), which is taken as 0% inhibition.

The next test has as its system TOV-112D. The test is described as follows: Cell proliferation assay. As to conditions: Homo sapiens, TOV112D, Table 7b, TOV-112D, read-out: Cell Proliferation Assay (EC50). On the procedure: as §1, §2
The test system of a further test is cyclin D1. Description: Western blot of Cyclin D1, Example 6B. The note with it: 250 nM, 24 h, compared to control (DMSO). As for the experimental part: Cells were plated at a density of 3×10^5 cells/well for 24 hrs. Representative compounds or DMSO alone was then added to the wells for 24 h at 250 nM (note: Compound F was administered at a concentration of 2 μM). Cells were trypsinised, pelleted, washed ×3 in PBS, and lysed using a 2% SDS lysis solution (Sigma—05030).
Western blot analysis was then carried out to look at Cyclin D1 (Abeam—ab134175), PRK8 (Sigma—P6248), Rb (Abeam—[…]) and GAPDH (Sigma—G9545) levels.
A general note: In western blotting, separated proteins are transferred to a membrane and probed.

Read-outs that look alike come from different tables or passages of the source.

Regarding `Cc1ccccc1C(=O)Nc1nc(NC(=O)c2ccc(CN)cc2)nn1-c1ccc(OC(F)(F)F)cc1` [Compound 1x, N-(3-(4-(aminomethyl)benzamido)-1-(4-(trifluoromethoxy)phenyl)-1H-1,2,4-triazol-5-yl)-2-methylbenzamide], the EC50 in the test with HCT 116 (cells printed in nM) worked out at 972 nM; with TOV-112D (cells printed in nM) it was 350 nM.

For the compound `Cc1ccccc1C(=O)Nc1nc(NC(=O)c2ccc(CN)cc2)n(-c2ccc(OC(F)(F)F)cc2)n1` [Compound 2x], the values for the EC50 in the test on HCT 116 (cells printed in μM) and with TOV-112D (cells printed in μM) were 3000 nM and 4000 nM, respectively.

On to `CCCCCCC(=O)NCc1ccc(C(=O)Nc2nc(-c3ncccc3C)nn2-c2ccc(OC(F)(F)F)cc2)cc1` [Compound 3x, 4-(heptanamidomethyl)-N-(3-(3-methylpyridin-2-yl)-1-(4-(trifluoromethoxy)phenyl)-1H-1,2,4-triazol-5-yl)benzamide], for which the results for the EC50 with HCT 116 (cells printed in nM) and with TOV-112D (cells printed in nM) were 484 nM and 349 nM, respectively.

`CCCCCCC(=O)NCc1ccc(C(=O)Nc2nc(-c3ncccc3C)nn2-c2cccc(F)c2)cc1` [Compound 4x, N-(1-(3-fluorophenyl)-3-(3-methylpyridin-2-yl)-1H-1,2,4-triazol-5-yl)-4-(heptanamidomethyl)benzamide]: the EC50 with HCT 116 (cells printed in nM) stood at 295 nM; in the test with TOV-112D (cells printed in nM), 227 nM.

In the case of `Cc1cccnc1-c1nc(NC(=O)c2ccc(CN)cc2)n(-c2ccc(OC(F)(F)F)cc2)n1` [Compound 5x, 4-(aminomethyl)-N-(3-(3-methylpyridin-2-yl)-1-(4-(trifluoromethoxy)phenyl)-1H-1,2,4-triazol-5-yl)benzamide], the EC50 amounted to 133 nM in the test with HCT 116 (cells printed in nM) and 114 nM in the test on TOV-112D (cells printed in nM). Also, the “Cyclin D1 expression” value in the test with cyclin D1 (HCT-116) and in the test on cyclin D1 (TOV-112) was “reduction of Cyclin D1 expression” each time.

Consider `Cc1cccnc1-c1nc(NC(=O)c2ccc(CN)cc2)n(-c2cccc(F)c2)n1` [Compound 6x, 4-(aminomethyl)-N-(1-(3-fluorophenyl)-3-(3-methylpyridin-2-yl)-1H-1,2,4-triazol-5-yl)benzamide], for which the EC50 in the test with HCT 116 (cells printed in μM) and in the test on TOV-112D (cells printed in μM) was 2000 nM throughout. The “Cyclin D1 expression” value in the test on cyclin D1 (HCT-116) and in the test with cyclin D1 (TOV-112) was “reduction of Cyclin D1 expression” throughout.

Turning to `Cc1ccccc1C(=O)Nc1nc(-c2ccccc2O)nn1-c1ccc(N2CCNCC2)cc1` [Compound 7x, N-(3-(2-hydroxyphenyl)-1-(4-(piperazin-1-yl)phenyl)-1H-1,2,4-triazol-5-yl)-2-methylbenzamide], the EC50 was 406 nM in the test with HCT 116 (cells printed in nM) and 285 nM with TOV-112D (cells printed in nM). For the same compound, the “Cyclin D1 expression” value with cyclin D1 (HCT-116) and in the test on cyclin D1 (TOV-112) was “reduction of Cyclin D1 expression” throughout.

Turning to `CCCCCCC(=O)N1CCN(c2ccc(-n3nc(-c4ccccc4O)nc3NC(=O)c3ccccc3C)cc2)CC1` [Compound 8x, N-(1-(4-(4-heptanoylpiperazin-1-yl)phenyl)-3-(2-hydroxyphenyl)-1H-1,2,4-triazol-5-yl)-2-methylbenzamide], the EC50 in the test with HCT 116 (cells printed in nM) turned out to be 246 nM; in the test with TOV-112D (cells printed in nM), 124 nM.

As to `CCCCCCC(=O)NCc1ccc(C(=O)Nc2nc(-c3ccccc3O)nn2-c2ccc(OC(F)(F)F)cc2)cc1` [Compound 9x, 4-(heptanamidomethyl)-N-(3-(2-hydroxyphenyl)-1-(4-(trifluoromethoxy)phenyl)-1H-1,2,4-triazol-5-yl)benzamide], the EC50 was determined as 121 nM in the test on HCT 116 (cells printed in nM) and 82 nM in the test on TOV-112D (cells printed in nM).

In the case of `NCc1ccc(C(=O)Nc2nc(-c3ccccc3O)nn2-c2ccc(OC(F)(F)F)cc2)cc1` [Compound 10x, 4-(aminomethyl)-N-(3-(2-hydroxyphenyl)-1-(4-(trifluoromethoxy)phenyl)-1H-1,2,4-triazol-5-yl)benzamide], the values for the EC50 in the test with HCT 116 (cells printed in nM) and with TOV-112D (cells printed in nM) were 108 nM and 71 nM, respectively. For the same compound, the “Cyclin D1 expression” value with cyclin D1 (HCT-116) and with cyclin D1 (TOV-112) was “reduction of Cyclin D1 expression” in each case.

On to `Cc1ccccc1C(=O)Nc1nc(NC(=O)c2cccc(CN3CCOCC3)c2)nn1-c1ccc(OC(F)(F)F)cc1` [Compound 11x, 2-methyl-N-(3-(3-(morpholinomethyl)benzamido)-1-(4-(trifluoromethoxy)phenyl)-1H-1,2,4-triazol-5-yl)benzamide], for which the EC50 in the test on HCT 116 (cells printed in nM) was determined as 929 nM; in the test with TOV-112D (cells printed in nM), 774 nM. Also, the “Cyclin D1 expression” value in the test on cyclin D1 (HCT-116) and with cyclin D1 (TOV-112) was “reduction of Cyclin D1 expression” each time.

On to `Cc1ccccc1C(=O)Nc1nc(NC(=O)c2ccc(CNC(C)C)cc2)nn1-c1ccc(OC(F)(F)F)cc1` [Compound 12x, N-(3-(4-((isopropylamino)methyl)benzamido)-1-(4-(trifluoromethoxy)phenyl)-1H-1,2,4-triazol-5-yl)-2-methylbenzamide], for which the EC50 in the test on HCT 116 (cells printed in nM) stood at 755 nM; with TOV-112D (cells printed in nM) it was 183 nM.

`Cc1ccccc1C(=O)Nc1nc(NC(=O)c2cccc(CNC(C)C)c2)nn1-c1ccc(OC(F)(F)F)cc1` [Compound 13x, N-(3-(3-((isopropylamino)methyl)benzamido)-1-(4-(trifluoromethoxy)phenyl)-1H-1,2,4-triazol-5-yl)-2-methylbenzamide]: the values for the EC50 in the test with HCT 116 (cells printed in nM) and in the test on TOV-112D (cells printed in nM) were 426 nM and 231 nM, respectively. Besides, the “Cyclin D1 expression” value in the test with cyclin D1 (HCT-116) and in the test with cyclin D1 (TOV-112) was “reduction of Cyclin D1 expression” in each case.

As to `Cc1ccccc1C(=O)Nc1nc(NC(=O)c2ccc(CN3CCN(C)CC3)cc2)nn1-c1ccc(OC(F)(F)F)cc1` [Compound 14x, 2-methyl-N-(3-(4-((4-methylpiperazin-1-yl)methyl)benzamido)-1-(4-(trifluoromethoxy)phenyl)-1H-1,2,4-triazol-5-yl)benzamide], the EC50 in the test on HCT 116 (cells printed in nM) came out at 412 nM; in the test on TOV-112D (cells printed in nM), 655 nM. Moreover, the “Cyclin D1 expression” value in the test with cyclin D1 (HCT-116) and with cyclin D1 (TOV-112) was “reduction of Cyclin D1 expression” each time.

With `Cc1ccccc1C(=O)Nc1nc(NC(=O)c2cccc(CN3CCN(C)CC3)c2)nn1-c1ccc(OC(F)(F)F)cc1` [Compound 15x, 2-methyl-N-(3-(3-((4-methylpiperazin-1-yl)methyl)benzamido)-1-(4-(trifluoromethoxy)phenyl)-1H-1,2,4-triazol-5-yl)benzamide], the EC50 was determined as 1000 nM in the test with HCT 116 (cells printed in μM) and 3000 nM with TOV-112D (cells printed in μM).

Take `Cc1ccccc1C(=O)Nc1nc(NC(=O)c2ccc(CNC(=O)[C@@H]3CCCN3)cc2)nn1-c1ccc(OC(F)(F)F)cc1` [Compound 16x, (S)—N-(4-((5-(2-methylbenzamido)-1-(4-(trifluoromethoxy)phenyl)-1H-1,2,4-triazol-3-yl)carbamoyl)benzyl)pyrrolidine-2-carboxamide]: the EC50 turned out to be 412 nM in the test on HCT 116 (cells printed in nM) and 659 nM in the test with TOV-112D (cells printed in nM).
